pIC50: −log10 of the molar value.
Test system: 439559-082-T-J2-PDC spheroid viability
Assay: Anticancer human tumor 439559-082-T-J2-PDC patient-derived colon adenocarcinoma cell line growth inhibition [POLQ]
Details: spheroids with HUVEC and MSC; for pIC50: curve of first compound; for viability, T/C: stronger effect = lower value
Method in brief: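 Growth inhibition in 3D: complex spheroids (tumor PDC, HUVEC, MSC) treated with POLQ inhibitor combinations; where Cmax unknown, highest tested concentration 10 microM, except SN-38 at 1 microM.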

[1] = second compound 0.0316 µM, first compound 0.0316 µM
[2] = second compound 0.0316 µM, first compound 0.1 µM
[3] = second compound 0.0316 µM, first compound 0.316 µM
[4] = second compound 0.0316 µM, first compound 1 µM
[5] = second compound 0.0316 µM, first compound 3.16 µM
[6] = second compound 0.0316 µM, first compound 10 µM
[7] = second compound 0.1 µM, first compound 0.0316 µM
[8] = second compound 0.1 µM, first compound 0.1 µM
[9] = second compound 0.1 µM, first compound 0.316 µM
[10] = second compound 0.1 µM, first compound 1 µM
[11] = second compound 0.1 µM, first compound 3.16 µM
[12] = second compound 0.1 µM, first compound 10 µM
[13] = second compound 0.316 µM, first compound 0.0316 µM
[14] = second compound 0.316 µM, first compound 0.1 µM
[15] = second compound 0.316 µM, first compound 0.316 µM
[16] = second compound 0.316 µM, first compound 1 µM
[17] = second compound 0.316 µM, first compound 3.16 µM
[18] = second compound 0.316 µM, first compound 10 µM
[19] = second compound 1 µM, first compound 0.0316 µM
[20] = second compound 1 µM, first compound 0.1 µM
[21] = second compound 1 µM, first compound 0.316 µM
[22] = second compound 1 µM, first compound 1 µM
[23] = second compound 1 µM, first compound 3.16 µM
[24] = second compound 1 µM, first compound 10 µM
[25] = second compound 3.16 µM, first compound 0.0316 µM
[26] = second compound 3.16 µM, first compound 0.1 µM
[27] = second compound 3.16 µM, first compound 0.316 µM
[28] = second compound 3.16 µM, first compound 1 µM
[29] = second compound 3.16 µM, first compound 3.16 µM
[30] = second compound 3.16 µM, first compound 10 µM
[31] = second compound 10 µM, first compound 0.0316 µM
[32] = second compound 10 µM, first compound 0.1 µM
[33] = second compound 10 µM, first compound 0.316 µM
[34] = second compound 10 µM, first compound 1 µM
[35] = second compound 10 µM, first compound 3.16 µM
[36] = second compound 10 µM, first compound 10 µM
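Note: spheroids exposed to compounds for seven days before readout.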
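Throughout, for viability, T/C: 100% = DMSO vehicle control viability.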

C#Cc1c(F)ccc2cc(O)cc(-c3ncc4c(N5CC6CCC(C5)N6)nc(OCC56CCCN5CC(F)C6)nc4c3F)c12 (stereo unspecified) + COC1C(OC(N)=O)C(O)C(Oc2ccc3c(O)c(NC(=O)c4ccc(O)c(CC=C(C)C)c4)c(=O)oc3c2C)OC1(C)C
pIC50 (second compound 0.0316 µM): < 5.00 | pIC50 (second compound 0.1 µM): < 5.00 | pIC50 (second compound 0.316 µM): < 5.00 | pIC50 (second compound 1 µM): < 5.00 | pIC50 (second compound 3.16 µM): < 5.00 | pIC50 (second compound 10 µM): < 5.00 | viability, T/C [1]: 87.5% | viability, T/C [2]: 90.6% | viability, T/C [3]: 73.8% | viability, T/C [4]: 69.2% | viability, T/C [5]: 58.4% | viability, T/C [6]: 50.3% | viability, T/C [7]: 96% | viability, T/C [8]: 89.1% | viability, T/C [9]: 80% | viability, T/C [10]: 68.9% | viability, T/C [11]: 59.7% | viability, T/C [12]: 52.1% | viability, T/C [13]: 101% | viability, T/C [14]: 84.8% | viability, T/C [15]: 75.8% | viability, T/C [16]: 67.7% | viability, T/C [17]: 61.1% | viability, T/C [18]: 51.1% | viability, T/C [19]: 96.5% | viability, T/C [20]: 88% | viability, T/C [21]: 75% | viability, T/C [22]: 63.9% | viability, T/C [23]: 57.4% | viability, T/C [24]: 49.8% | viability, T/C [25]: 97.2% | viability, T/C [26]: 93.9% | viability, T/C [27]: 70.4% | viability, T/C [28]: 63.9% | viability, T/C [29]: 60.6% | viability, T/C [30]: 49% | viability, T/C [31]: 103% | viability, T/C [32]: 92.1% | viability, T/C [33]: 73.5% | viability, T/C [34]: 67.2% | viability, T/C [35]: 64.4% | viability, T/C [36]: 49.6%

COc1cccc2c1C(=O)c1c(O)c3c(c(O)c1C2=O)CC(O)(C(=O)CO)CC3OC1CC(N)C(O)C(C)O1 (stereo unspecified) + COC1C(OC(N)=O)C(O)C(Oc2ccc3c(O)c(NC(=O)c4ccc(O)c(CC=C(C)C)c4)c(=O)oc3c2C)OC1(C)C
pIC50 (second compound 0.0316 µM): 5.01 | pIC50 (second compound 0.1 µM): < 5.00 | pIC50 (second compound 0.316 µM): 5.20 | pIC50 (second compound 1 µM): 5.02 | pIC50 (second compound 3.16 µM): 5.11 | pIC50 (second compound 10 µM): 5.11 | viability, T/C [1]: 94.1% | viability, T/C [2]: 102% | viability, T/C [3]: 88.1% | viability, T/C [4]: 70% | viability, T/C [5]: 64.5% | viability, T/C [6]: 47.9% | viability, T/C [7]: 105% | viability, T/C [8]: 108% | viability, T/C [9]: 82.9% | viability, T/C [10]: 68.2% | viability, T/C [11]: 59.9% | viability, T/C [12]: 49.6% | viability, T/C [13]: 97.7% | viability, T/C [14]: 98.8% | viability, T/C [15]: 77.3% | viability, T/C [16]: 70.2% | viability, T/C [17]: 59.7% | viability, T/C [18]: 44.3% | viability, T/C [19]: 98.8% | viability, T/C [20]: 104% | viability, T/C [21]: 84.7% | viability, T/C [22]: 65.8% | viability, T/C [23]: 56.1% | viability, T/C [24]: 47.7% | viability, T/C [25]: 104% | viability, T/C [26]: 98.9% | viability, T/C [27]: 85.2% | viability, T/C [28]: 66.4% | viability, T/C [29]: 61.8% | viability, T/C [30]: 46.2% | viability, T/C [31]: 95.3% | viability, T/C [32]: 105% | viability, T/C [33]: 85.9% | viability, T/C [34]: 67.5% | viability, T/C [35]: 61.4% | viability, T/C [36]: 45.4%

CC(C)n1c(=O)n(C)c2cnc3cc(F)c(-c4ccc(OCCCN5CCCCC5)nc4)cc3c21 + Nc1ccc(C#CCN(C(=O)Cc2ncc(C(F)(F)F)cc2C(F)(F)F)c2ccc(F)cc2)nn1
pIC50 (second compound 0.0316 µM): < 5.00 | pIC50 (second compound 0.1 µM): < 5.00 | pIC50 (second compound 0.316 µM): < 5.00 | pIC50 (second compound 1 µM): < 5.00 | pIC50 (second compound 3.16 µM): < 5.00 | pIC50 (second compound 10 µM): < 5.00 | viability, T/C [1]: 88.2% | viability, T/C [2]: 110% | viability, T/C [3]: 113% | viability, T/C [4]: 105% | viability, T/C [5]: 110% | viability, T/C [6]: 96.7% | viability, T/C [7]: 106% | viability, T/C [8]: 113% | viability, T/C [9]: 104% | viability, T/C [10]: 122% | viability, T/C [11]: 102% | viability, T/C [12]: 112% | viability, T/C [13]: 103% | viability, T/C [14]: 100% | viability, T/C [15]: 102% | viability, T/C [16]: 109% | viability, T/C [17]: 110% | viability, T/C [18]: 105% | viability, T/C [19]: 111% | viability, T/C [20]: 99.7% | viability, T/C [21]: 101% | viability, T/C [22]: 116% | viability, T/C [23]: 89.3% | viability, T/C [24]: 113% | viability, T/C [25]: 98.1% | viability, T/C [26]: 103% | viability, T/C [27]: 101% | viability, T/C [28]: 115% | viability, T/C [29]: 102% | viability, T/C [30]: 126% | viability, T/C [31]: 102% | viability, T/C [32]: 102% | viability, T/C [33]: 110% | viability, T/C [34]: 96.7% | viability, T/C [35]: 127% | viability, T/C [36]: 117%

— PubChem BioAssay AID1963841 (Molecular Pharmacology Branch, DTP, NCI, 2024)
